Read-outs that look alike come from different tables or passages of the source.
How the values were obtained:
[1] = biological target: T1, LFA-1 binding to immobilized ICAM-1 (Homo sapiens, UniProt P05107+P20701); experiment: LFA-1/ICAM-1 protein-protein assay (solid-phase ELISA)
T1 construct: made in house; host or cells: transfected 293 cells (LFA-1)
Procedure: (a) LFA-1/ICAM-1 screening test: LFA-1/ICAM-1 antagonist activity, defined as the ability of compounds of the invention to block LFA-1 binding to immobilized ICAM-1, was quantitated using a solid-phase ELISA.
(§1) Typically, fusion protein consisting of the entire extracellular domain of human ICAM-1 and the Fc domain of human IgG (5dICAM-Ig) was coated onto 96-well microtiter plates (0.15 μg in 100 μL PBS) overnight at 4° C. The plates were then blocked with 150 μL of 1% BSA/1 mM MnCl2/0.14 M NaCl/20 mM HEPES, pH 7.2 for 1 h at 37° C. and washed 3 times (150 μL each) with Wash Buffer (50 mM Tris, pH 7.4/100 mM NaCl/1 mM MnCl2/0.05% Tween 20). Stock solutions (100 μM in 100% DMSO) of test compounds were diluted 50 fold with 150 μL of Binding Buffer (0.05% BSA/0.05% Tween 20/1 mM MnCl2/0.14 M NaCl/20 mM HEPES, pH 7.2) plus 10% DMSO. […] Fifty μL per well of each dilution was added to the ICAM-1 coated plates, followed by 50 μL per well of membrane-bound LFA-1 (280 ng/mL in Binding Buffer) derived from transfected 293 cells. The plates were shaken vigorously for 1 min (room temperature) and gently for 2 h (37° C.). After incubation, the plates were washed 3 times (150 μL each) with Wash Buffer. Mouse anti-human integrin β2 monoclonal antibody was added (100 μL/well, 1 μg/mL in Binding Buffer) and allowed to incubate for 1 h (37° C.) with gentle agitation. The plates were then washed 3 times with Wash Buffer. HRP-conjugated goat anti-mouse IgG (100 μL/well, 1:1500 dilution in Binding Buffer) was added to each well, followed by incubation for 1 h (37° C.), and concluded by three washes (150 μL each) with Wash Buffer. TMB solution (100 μL per well) was added for color development (10 min). The reaction was stopped by the addition of 100 μL of 1 M H3PO4 to each well. The plates were then read at 450 nm. The inhibitory activities of test compounds were determined by the IC50s.
as §1, with “LFA-1/ICAM-1 antagonist activity, defined as the ability to block LFA-1 binding to immobilized ICAM-1, was quantitated using a solid-phase ELISA. Typically,” for “Typically,”, “(0.05 %” for “(0.05%”, “nm.” for “nm. The inhibitory activities of test compounds were determined by the IC50s.”

[2] = biological target: T2, ICAM-1 binding to immobilized Mac-1 (Homo sapiens, UniProt P05107+P11215); experiment: Mac-1/ICAM-1 screening assay (solid-phase ELISA)
T2 construct: made in house; host or cells: transfected 293 cells (Mac-1)
T2 sequence (P05107 23-769, other chains not shown): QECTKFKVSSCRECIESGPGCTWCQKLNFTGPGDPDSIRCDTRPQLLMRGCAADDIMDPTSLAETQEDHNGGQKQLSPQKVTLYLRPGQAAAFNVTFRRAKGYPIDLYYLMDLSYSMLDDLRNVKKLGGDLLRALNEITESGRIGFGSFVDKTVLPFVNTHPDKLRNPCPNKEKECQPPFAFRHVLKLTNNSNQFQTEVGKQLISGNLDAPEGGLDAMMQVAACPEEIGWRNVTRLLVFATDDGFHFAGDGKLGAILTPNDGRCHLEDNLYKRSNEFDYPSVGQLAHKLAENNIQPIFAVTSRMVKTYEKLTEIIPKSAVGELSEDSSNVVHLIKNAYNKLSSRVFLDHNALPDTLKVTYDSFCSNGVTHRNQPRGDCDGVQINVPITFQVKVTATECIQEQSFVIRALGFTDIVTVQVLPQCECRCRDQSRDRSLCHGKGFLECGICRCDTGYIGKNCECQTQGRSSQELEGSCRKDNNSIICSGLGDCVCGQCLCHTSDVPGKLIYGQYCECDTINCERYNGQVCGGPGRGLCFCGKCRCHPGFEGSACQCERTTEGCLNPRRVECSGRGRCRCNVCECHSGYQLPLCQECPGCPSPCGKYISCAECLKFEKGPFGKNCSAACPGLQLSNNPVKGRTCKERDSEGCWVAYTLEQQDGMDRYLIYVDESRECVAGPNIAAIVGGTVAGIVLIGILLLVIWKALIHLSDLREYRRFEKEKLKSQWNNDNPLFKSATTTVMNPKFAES
Procedure: (b) Mac-1/ICAM-1 screening test: Mac-1/ICAM-1 antagonist activity, defined as the ability to compete with ICAM-1 binding to immobilized Mac-1, was quantitated by a solid-phase ELISA.
(§2) Membrane-bound Mac-1 derived from transfected 293 cells was coated onto 96-well microtiter plates (50 μL/well, 3 μg/mL Mac-1 in 20 mM Hepes, pH 7.2/0.14 M NaCl/1 mM MnCl2) overnight at 4° C. The plates were blocked with 100 μL/well of 0.5% BSA in 20 mM Hepes, pH 7.2/0.14 M NaCl/1 mM MnCl2 at 37° C. for 1 h and washed 3 times (120 μL each) with Binding Buffer (20 mM Hepes, pH 7.2/0.14 M NaCl/1 mM MnCl2/0.05% Tween 20). Test compounds were dissolved in 100% DMSO and diluted 1:50 in Binding Buffer plus 10% DMSO. A series of 1:4 dilutions were performed for each compound (concentration range, 0.12 nM-20 μM). Each dilution (25 μL/well) was added to the plates, followed by 25 μL/well of 5 dICAM-Ig (40 μg/mL in Binding Buffer). The plates were shaken vigorously for 1 min (room temperature), followed by gentle agitation for 2 h (37° C.), and washed with Binding Buffer (3 times, 120 μL each). HRP-conjugated goat anti-human IgG(Fc-specific) antibody (0.125 μg/mL in Binding Buffer plus 0.05% BSA) was added to each well (50 μL/well), followed by incubation for 1 h at 37° C. The plates were then washed 3 times with Binding Buffer (120 μL each). TMB solution (100 μL/well) was added to each well for color development for 10 min. The reaction was stopped with 1 M H3PO4 (100 μL/well) and the plates were read at 450 nm. The inhibitory activities of test compounds were determined by the IC50s.
as §2, with “Mac-1/ICAM-1 antagonist activity, defined as the ability to compete with ICAM-1 binding to immobilized Mac-1, was quantitated by a solid-phase ELISA. Membrane-bound” for “Membrane-bound”, “5dICAM-Ig” for “5 dICAM-Ig”, “nm.” for “nm. The inhibitory activities of test compounds were determined by the IC50s.”

[3] = read-out: LFA-1/ICAM-1 Protein-Protein Assay IC50
[4] = read-out: Mac-1/ICAM-1 Protein-Protein Assay IC50

T1 sequence (P20701 26-1170): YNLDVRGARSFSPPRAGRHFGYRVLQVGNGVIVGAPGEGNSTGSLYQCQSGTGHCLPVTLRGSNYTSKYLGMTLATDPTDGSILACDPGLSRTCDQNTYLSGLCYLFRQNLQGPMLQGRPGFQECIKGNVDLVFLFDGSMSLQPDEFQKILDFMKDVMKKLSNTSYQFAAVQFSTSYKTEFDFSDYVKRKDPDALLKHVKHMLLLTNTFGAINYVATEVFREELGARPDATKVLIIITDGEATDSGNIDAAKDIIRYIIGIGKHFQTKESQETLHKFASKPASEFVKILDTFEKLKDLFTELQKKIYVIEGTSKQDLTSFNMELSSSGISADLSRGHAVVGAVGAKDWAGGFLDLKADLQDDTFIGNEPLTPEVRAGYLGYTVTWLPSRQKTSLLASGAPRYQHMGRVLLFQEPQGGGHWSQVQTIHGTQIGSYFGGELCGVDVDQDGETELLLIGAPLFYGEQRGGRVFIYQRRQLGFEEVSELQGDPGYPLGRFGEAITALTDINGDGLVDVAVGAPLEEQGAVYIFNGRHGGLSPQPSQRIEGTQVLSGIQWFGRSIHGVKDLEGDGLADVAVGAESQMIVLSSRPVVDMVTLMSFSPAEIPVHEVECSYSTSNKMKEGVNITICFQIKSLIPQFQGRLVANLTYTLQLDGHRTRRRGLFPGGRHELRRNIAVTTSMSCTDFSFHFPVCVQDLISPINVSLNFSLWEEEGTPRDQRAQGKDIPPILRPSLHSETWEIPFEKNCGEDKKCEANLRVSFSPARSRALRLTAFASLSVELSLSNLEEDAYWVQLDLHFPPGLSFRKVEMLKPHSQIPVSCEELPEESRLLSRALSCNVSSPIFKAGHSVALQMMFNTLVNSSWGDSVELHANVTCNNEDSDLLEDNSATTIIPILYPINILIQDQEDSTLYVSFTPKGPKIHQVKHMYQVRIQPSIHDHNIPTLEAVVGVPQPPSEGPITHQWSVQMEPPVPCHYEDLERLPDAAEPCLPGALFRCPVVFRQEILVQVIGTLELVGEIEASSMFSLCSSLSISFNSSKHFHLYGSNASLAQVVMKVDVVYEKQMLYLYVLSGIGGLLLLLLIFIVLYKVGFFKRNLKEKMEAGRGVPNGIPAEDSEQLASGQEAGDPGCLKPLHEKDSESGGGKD
T1 sequence (P05107 23-769): as the sequence (P05107 23-769, other chains not shown) above

| SMILES | IC50 ([1]; read-out: LFA-1/ICAM IC50) | IC50 ([2]; read-out: Mac-1/ICAM IC50) | IC50 [1, 3] | IC50 [2, 4] |
| --- | --- | --- | --- | --- |
| COc1cccc(C(=O)NC[C@H](NC(=O)c2ccc(C(=O)NCc3cccc(O)c3)cc2Cl)C(=O)O)c1 [Compound A, N-[2-chloro-4-[[[(3-hydroxyphenyl)methyl]amino]carbonyl]benzoyl]-3-(3-methoxybenzoyl)amino-L-alanine] | 1.2 nM | 43.4 nM | – | – |
| O=C(NCc1cccc(O)c1)c1ccc(C(=O)N[C@@H](CNC(=O)c2ccccc2)C(=O)O)c(Cl)c1 [Compound B, 3-benzoylamino-N-[2-chloro-4-[[[(3-hydroxyphenyl)methyl]amino]carbonyl]benzoyl]-L-alanine] | 0.9 nM | 31.2 nM | – | – |
| O=C(NCc1cccc(O)c1)c1ccc(C(=O)N[C@@H](CNC(=O)c2cc([N+](=O)[O-])[nH]n2)C(=O)O)c(Cl)c1 [Compound C, N-[2-chloro-4-[[[(3-hydroxyphenyl)methyl]amino]carbonyl]benzoyl]-3-(5-nitropyrazole-3-carbonyl)amino-L-alanine] | 6.4 nM | 101 nM | – | – |
| O=C(NCc1cccc(O)c1)c1ccc(C(=O)N[C@@H](CNC(=O)c2cccs2)C(=O)O)c(Cl)c1 [Compound D, N-[2-chloro-4-[[[(3-hydroxyphenyl)methyl]amino]carbonyl]benzoyl]-3-(thiophene-2-carbonyl)amino-L-alanine] | 0.5 nM | 6.4 nM | – | – |
| COc1cc(C(=O)NC[C@H](NC(=O)c2ccc(C(=O)NCc3cccc(O)c3)cc2Cl)C(=O)O)nc2ccccc12 [Compound E, N-[2-chloro-4-[[[(3-hydroxyphenyl)methyl]amino]carbonyl]benzoyl]-3-(4-methoxyquinoline-2-carbonyl)amino-L-alanine] | 15.2 nM | 521 nM | – | – |
| O=C(NC[C@H](NC(=O)c1c(Cl)cccc1Cl)C(=O)O)c1ccc(Br)s1 [Compound F, 3-(5-bromothiophene-2-carbonyl)amino-N-(2,6-dichlorobenzoyl)-L-alanine] | 6.4 nM | 81.7 nM | – | – |
| O=C(NCc1cccc2[nH]ccc12)c1ccc(C(=O)N[C@@H](CNC(=O)c2cccs2)C(=O)O)c(Cl)c1 [Compound G, N-[2-chloro-4-[[(1H-indol-4-ylmethyl)amino]carbonyl]benzoyl]-3-(thiophene-2-carbonyl)amino-L-alanine] | 1.3 nM | 22.4 nM | – | – |
| O=C(CCc1cccc(O)c1)c1ccc(C(=O)N[C@@H](CNC(=O)c2cccs2)C(=O)O)c(Cl)c1 [Compound H, N-[2-chloro-4-[1-oxo-3-(3-hydroxyphenyl)propyl]benzoyl]-3-(thiophene-2-carbonyl)amino-L-alanine] | 1.4 nM | 43.4 nM | – | – |
| O=C(NC[C@H](NC(=O)c1ccc(-n2nnnc2NCc2cccc(O)c2)cc1Cl)C(=O)O)c1cccs1 [Compound I, N-[2-chloro-4-[5-[[(3-hydroxyphenyl)methyl]amino]tetrazol-1-yl]benzoyl]-3-(thiophene-2-carbonyl)amino-L-alanine] | 2.6 nM | 75.5 nM | – | – |
| O=C(NCc1cccc2[nH]ccc12)c1ccc(C(=O)N[C@@H](CNCc2ccccc2)C(=O)O)c(Cl)c1 [Compound J, 3-(phenylmethyl)amino-N-[2-chloro-4-[[(1H-indol-4-ylmethyl)amino]carbonyl]benzoyl]-L-alanine] | 11.9 nM | 1410 nM | – | – |
| O=C(NCc1cccc(O)c1)c1ccc(C(=O)N[C@@H](CNC(=O)c2ccccn2)C(=O)O)c(Cl)c1 [Example 162] | – | – | 1 nM | 105 nM |
| O=C(NCc1cccc(O)c1)c1ccc(C(=O)N[C@@H](CNC(=O)c2cccnc2Cl)C(=O)O)c(Cl)c1 [Example 166] | – | – | 3 nM | 68 nM |
| O=C(NCc1cccc(O)c1)c1ccc(C(=O)N[C@@H](CNC(=O)c2ccc(Cl)nc2)C(=O)O)c(Cl)c1 [Example 167] | – | – | 2.2 nM | 39 nM |
| COc1ccc(C(=O)NC[C@H](NC(=O)c2ccc(C(=O)NCc3cccc(O)c3)cc2Cl)C(=O)O)c(OC)n1 [Example 168] | – | – | 12 nM | 224 nM |
| O=C(NCc1cccc(O)c1)c1ccc(C(=O)N[C@@H](CNC(=O)c2nccnc2C(=O)Nc2ccc(Cl)cn2)C(=O)O)c(Cl)c1 [Example 171] | – | – | 1 nM | 136 nM |
| O=C(NCc1cccc(O)c1)c1ccc(C(=O)N[C@@H](CNC(=O)c2c[nH]c(=O)[nH]c2=O)C(=O)O)c(Cl)c1 [Example 172] | – | – | 7 nM | 538 nM |

Reference: patent publication US20040006236A1, “Diaminopropionic acid derivatives” (priority 1999, published 2004)
